# Data as given in patent publication US20030096733A1, “Novel drug targets for arthritis” (Omnio AB, priority 2001, published 2003).
# Where a name gives a salt, the structure may show the parent alone. Residues, ends and D or L forms follow the SMILES beside them.
# B1: Human plasminogen: human plasminogen injected intravenously into plasminogen deficient mice to restore the serum plasminogen level (protein)
# chain: MEHKEVVLLLLLFLKSGQGEPLDDYVNTQGASLFSVTKKQLGAGSIEECAAKCEEDEEFTCRAFQYHSKEQQCVIMAENRKSSIIIRMRDVVLFEKKVYLSECKTGNGKNYRGTMSKTKNGITCQKWSSTSPHRPRFSPATHPSEGLEENYCRNPDNDPQGPWCYTTDPEKRYDYCDILECEEECMHCSGENYDGKISKTMSGLECQAWDSQSPHAHGYIPSKFPNKNLKKNYCRNPDRELRPWCFTTDPNKRWELCDIPRCTTPPPSSGPTYQCLKGTGENYRGNVAVTVSGHTCQHWSAQTPHTHNRTPENFPCKNLDENYCRNPDGKRAPWCHTTNSQVRWEYCKIPSCDSSPVSTEQLAPTAPPELTPVVQDCYHGDGQSYRGTSSTTTTGKKCQSWSSMTPHRHQKTPENYPNAGLTMNYCRNPDADKGPWCFTTDPSVRWEYCNLKKCSGTEASVVAPPPVVLLPDVETPSEEDCMFGNGKGYRGKRATTVTGTPCQDWAAQEPHRHSIFTPETNPRAGLEKNYCRNPDGDVGGPWCYTTNPRKLYDYCDVPQCAAPSFDCGKPQVEPKKCPGRVVGGCVAHPHSWPWQVSLRTRFGMHFCGGTLISPEWVLTAAHCLEKSPRPSSYKVILGAHQEVNLEPHVQEIEVSRLFLEPTRKDIALLKLSSPAVITDKVIPACLPSPNYVVADRTECFITGWGETQGTFGAGLLKEAQLPVIENKVCNRYEFLNGRVQSTELCAGHLAGGTDSCQGDSGGPLVCFEKDKYILQGVTSWGLGCARPNKPGVYVRVSRFVTWIEGVMRNN
# B2: α2AP: single-chain glycoprotein, physiological inhibitor of plasmin (protein, UniProt P08697 40-491, looked up)
# Alpha-2-antiplasmin: NQEQVSPLTLLKLGNQEPGGQTALKSPPGVCSRDPTPEQTHRLARAMMAFTADLFSLVAQTSTCPNLILSPLSVALALSHLALGAQNHTLQRLQQVLHAGSGPCLPHLLSRLCQDLGPGAFRLAARMYLQKGFPIKEDFLEQSEQLFGAKPVSLTGKQEDDLANINQWVKEATEGKIQEFLSGLPEDTVLLLLNAIHFQGFWRNKFDPSLTQRDSFHLDEQFTVPVEMMQARTYPLRWFLLEQPEIQVAHFPFKNNMSFVVLVPTHFEWNVSQVLANLSWDTLHPPLVWERPTKVRLPKLYLKHQMDLVATLSQLGLQELFQAPDLRGISEQSLVVSGVQHQSTLELSEVGVEAAAATSIAMSRMSLSSFSVNRPFLFFIFEDTTGLPLFVGSVRNPNPSAPRELKEQQDSPGNKDFLQSLKGFPRGDKLFGPDLKLVPPMEEDYPQFGSPK
# Key:
# CIA-sensitive mice [1] = assay: Aprotinin treatment of CIA-sensitive mice, arthritis induced by monoclonal antibodies C1 and M2139; format: in vivo; conditions: 0.5 mL aprotinin w/o emulsion i.p. every 72 hours; monoclonal antibody induction
# Description: (§1) To test potential drug candidates, arthritis is induced in CIA-sensitive mice either by immunization with collagen type II (CIA) or, alternatively, by use of monoclonal antibodies.
# Using monoclonal antibodies to induce CIA has an advantage in that it allows for better control of the induction.
# (§2) The present example describes treatment of CIA-sensitive mice with aprotinin (Trasylol; Bayer). Trasylol is an inhibitor of plasmin and thereby, according to the invention, a candidate drug for treating arthritis.
# (§3) Since aprotinin has a rather short half life in mice, a sustained release system for Trasylol is used. An exemplary system based on water/oil (w/o) emulsions where aprotinin is incorporated is described in detail by Bjerregaard et al. (Journal of Controlled release 2001; 71:87-98).
# The mice are injected intraperitoneally with 0.5 mL aprotinin emulsion, containing 30% w/w disperse phase with 87 mg aprotinin per ml aqueous phase (corresponding to a dose of approximately 85,000 KIU (“kallikrein-inactivator units”) aprotinin, using a Hamilton syringe 21 G needle. (It is also possible to carry out controlled administration of aprotinin via an osmotic pump.) The injection is repeated every 72 hours.
# CIA induction using monoclonal antibodies. […] The development of arthritis is evaluated with the clinical grading system described in Example 1. […]
# CIA-sensitive mice [2] = assay: Aprotinin treatment of CIA-sensitive mice, arthritis induced by rat collagen II; format: in vivo; conditions: 0.5 ml aprotinin w/o emulsion i.p. every 72 hr; collagen II induction
# Description: as §1, §2, §3
# CIA induction using Collagen-II. Collagen-induced arthritis (CIA) is induced in mice with Rat collagen II, which is prepared from the Swarm chondrosarcoma after pepsin digestion, as previously described (Andersson and Holmdahl, Eur J Immunol 1990;20:1061-1066). Collagen II is dissolved at a concentration of 2 mg/ml in 0.1 M acetic acid and stored at 4° C. Arthritis is induced by intrademal injection at the basis of the tail with […] of […] rat collagen II emulsified with an equal volume of complete Freund's adjuvant (CFA, with Mycobacterium butyricum; Difco, Detroit, Mich.). […]
# [3] = cited from earlier work
# human uPA = human uPA (Homo sapiens, UniProt P00749); conditions: read-out: Km for human uPA; chromogenic substrate; cited from earlier work
# plasmin [4] = biological target: T1, plasmin (Homo sapiens, UniProt P00747); conditions: chromogenic substrate; cited from earlier work
# T1 construct: After the cleavage, plasmin is an active two-chain disulfide linked molecule
# [5] = system: plasminogen deficient mice; assay: Restoration of plasminogen in plasminogen deficient mice, arthritis induced by collagen II monoclonal antibody cocktail; format: in vivo
# Experimental: Induction of arthritis using monoclonal antibodies directed against collagen type II. A battery of monoclonal antibodies against collagen type II were produced by standard procedures. Induction of arthritis was performed by intravenous injection of a cocktail of two antibodies denoted C1 and M2139 at day 0. Five days later (day 5), lipopolysacchride was injected intraperitoneally to enhance the immune response. The development of arthritis was evaluated with a previously described clinical grading system.
# Clinical grading evaluation of arthritis. The development of arthritis was tracked using a scoring system which defines one inflamed toe or knuckle as 1 point and one inflamed wrist or ankle as […], resulting in a score of 0-15 points for each paw and 0-60 points per mouse. Deformed or swollen without redness is not included in this system.
# Induction of arthritis in plasminogen deficient mice by restoration of plasminogen. 100 μl of human plasminogen, at a concentration of 10 mg/ml, was injected intravenously into the plasminogen deficient mice every 24 hours in order to restore the serum plasminogen level. 12 hours after the first injection of plasminogen, three groups of mice, plg-wildtype, plg-heterozygous, plg-deficient were again injected with plasminogen before arthritis was induced using the Collagen II monoclonal antibody cocktails as described above. The development of arthritis was followed by the clinical scoring system.
# plasmin [6] = biological target: T1, plasmin; conditions: cited from earlier work
molecule,measurement,setting,value
aprotinin,incidence of the CIA vs control mice,CIA-sensitive mice [1],lower
same,severity of the CIA vs control mice,CIA-sensitive mice [1],lower
same,incidence of the CIA vs control mice,CIA-sensitive mice [2],lower
same,severity of the CIA vs control mice,CIA-sensitive mice [2],lower
same,half life in mice,[3],rather short
L-pyroglutamyl-glycyl-L-arginine-p-nitroaniline hydrochloride [S-2444],Km,human uPA,90 µM
"CC(C)C[C@H](NC(=O)[C@H](N)C(C)C)C(=O)N[C@@H](CCCCN)C(=O)Nc1ccc([N+](=O)[O-])cc1 [S-2251, H-D-Valyl-L-leucyl-L-lysine-p-nitroaniline dihydrochloride] (HELM PEPTIDE1{[dV].L.K.[O=[N+]([O-])c1ccc(N[*:1])cc1]}$$$$V2.0)",Km,plasmin [4],300 µM
B1,plasminogen deficient mice that developed joint inflammation,"[5]; five days after the cocktail injection, human plasminogen injected 12 hours before challenge",3 out of 4
same,Arthritic score,"[5]; plg −/− mice, human plasminogen i.v. every 24 hours, anti-collagen II monoclonal antibody cocktail, clinical score 0-60 points per mouse",6.7 ± 2.9
same,Incidence of RA,"[5]; plg −/− mice, human plasminogen i.v. every 24 hours, anti-collagen II monoclonal antibody cocktail, mice affected/total",3/4
B2,second-order rate constant of inhibition of plasmin,plasmin [6],above 10^7 M^−1s^−1
